Test results reported in US5100907A, “Hydantoin esters” (Lonza, Inc., priority 1990, dated 1992).
Read-outs that look alike come from different tables or passages of the source.

Legend:
[1] = Solubilities of esters in typical solvents / appearance of samples in water; format: physicochemical; conditions: 25° C.
[2] = Total available formaldehyde (TF) and free formaldehyde (FF) levels of esters (I); format: physicochemical; conditions: for FF/TF ratio: water
Text: Thus, whether the formaldehyde content is chemically bonded to the hydantoin moiety or is free formaldehyde (FF) in solution, e.g., in water as formaldehyde or methylene glycol [CH2 (OH)2 ], it remains available for biocidal action. Due to this direct relation, the weight percent TF in a given preparation of the ester (I), e.g. a cosmetic formulation, can be predicted accurately, regardless of the level of dilution.

[3] = Dispersion stability tests; format: physicochemical
Protocol: The dispersion stability tests were performed on the esters (I) to determine the extent each was able to disperse itself in an aqueous medium.
The dispersions were prepared by homogenizing a mixture of the test ester and water, after which repeated examination of the sample was effected for a period of 55 days. This test method is fully indicative of the dispersibility of these esters (I).
The dispersion tests were performed with the esters at 0.5% and 5.0% active levels in water, prepared by combining the test ester with distilled water, and homogenizing the mixture for one to three minutes, via a Kika-Werk Ultra-Turrax S D-45 homogenizer. The dispersions were poured into an eight ounce flint jar, capped, and periodically examined over a 55 day period.

[4] = Surface tension tests (cmc, Gibbs' Free Energy of Micellation); format: physicochemical; conditions: for ΔG°cmc (Gibbs' Free Energy of Micellation): calculated from cmc by Eq. 1, T=298° K.; for cmc (critical micelle concentration): ester/water solution
Protocol: Surface tension tests were conducted as to the relationship between the fatty acid aliphatic chain length, i.e. number of carbon atoms, in the esters (I), and their performance as surfactants. The length of the hydrophobic chain of a molecule is considered the major contributing factor to the critical micelle concentration (cmc) value of a surfactant. This value is obtained from surface tension measurement data. The lower the cmc, the more readily the material will form micelles.
The Gibbs' Free Energy of Micellation (ΔG°cmc) and the ΔG°cmc per --CH2 -- can be determined if the cmc is known.
The ΔG°cmc is a calculated value obtained by Equation 1.
ΔG°cmc =2.303RT(log cmc-log[water]) (Eq. 1)
The ΔG°cmc per --CH2 -- value is obtained from the slope of the straight line curve formed from a plot of ΔG°cmc versus the number of carbon atoms in the lipophilic chain.
The cmc values were based on surface tension tests conducted with a tensiometer (Cenco-DuNoug Precision Model #70535, direct reading model) to determine the upward surface tension at the liquid-air surface of the test ester/water solution. The methods used to calibrate the tensiometer, calculate the "correction factor" (used to correct for the difference between the apparent and true surface tension), and collect data, were conducted as described in the manual for the instrument. Sodium lauryl sulfate (SLS) and distilled water were used as reference samples.
On completing data collection, plots of the surface tension (dynes) versus -log of the concentration (mols/liter) were prepared, using only the "corrected" surface tension value, obtained by applying the noted "correction factor" in each case. The […] was found by multiplying the "apparent" surface tension by a calculated correction factor.
The critical micelle concentration (cmc) for each sample was determined by locating the point in the curve where the surface tension first begins to level off, per a known procedure.

[5] = Physical properties of methylolated MHEDMH esters (I): viscosity; format: physicochemical; conditions: at 25° C.
Emulsion stability tests = format: physicochemical; conditions: for Classification of Emulsion: 2% ester, 7% myristyl propionate, 91% water
Protocol: Emulsion stability tests were performed on the esters (I), and for comparison on the precursor esters (Ia), to determine the extent to which each stabilized a standardized solution of water and an oil, using a common procedure consisting of homogenizing a mixture containing the test ester (2%), myristyl propionate (7%), and water (91%). While two emulsifiers are normally used to prepare a cosmetic formulation, e.g. one with a high HLB and the other with a low HLB, the test method herein using only one emulsifier, i.e. the test ester, is fully indicative of the emulsifying attributes of these esters.
The tests were performed with emulsions (500 g), prepared by combining the test ester (10.0 g), myristyl propionate (35 g), and distilled water (455 g) in a container and homogenizing the contents for one minute, via a Kika-Werk Ultra-Turrax S D-45 homogenizer. The emulsions were poured into a one pound flint jar, capped, and periodically examined over a 55 day period.

[6] = HLB determination (weighted average method); format: physicochemical
Text: Hydrophilic-Lipophilic Balance or HLB is a means of associating the hydrophilic and lipophilic characteristics between two surfactants. A "weighted average" method was used to determine the HLB of the esters (I), and by comparison of the precursor ester (Ia), in which two emulsifiers of known HLB values along with the test ester were incorporated in a mixture of mineral oil and water. Evaluation and HLB determination of each of a series of prepared emulsion samples were effected by visual inspection.
The HLB of the mixture "m" is calculated from the sum of the HLB contributions of each surfactant, "a", "b", "c", per Equation 2 which describes a system of oil, water, and three surfactants.
Given that [HLB]m, [HLB]a, and [HLB]b, are known, and the ideal amount of "a", "b", and "c" to prepare a perfect emulsion has been determined, then by rearrangement of Eq. 2, the HLB of "c" can be calculated by Equation 3.
To obtain the HLB of the test ester as surfactant "c", a series of formulations was prepared in which the known surfactant sorbitan monostearate (SMS) as "a" and the known surfactant POE 20 sorbitan monostearate (POE 20 SMS) as "b" were varied in amount (wt. %) relative to each other at a constant amount (1 wt. %) of "c", until an optimum emulsion was obtained. Different combinations of "a" and "b" were used to vary the HLB of "c", for emulsifying a 40:56 (wt. %) mixture of paraffin oil and distilled water (totaling 96 wt. %).
To prepare the emulsions, surfactants "a", "b", and "c", and the paraffin oil were combined in a 150 ml beaker and heated slowly with agitation to 70°-80° C. The value of "X" in each formulation was predetermined by rearranging Eq. 3 to solve for X, and then inserting into the equation various [HLB]c values for the test ester (i.e., 2, 3, 4, 5, 6 . . . ). The [HLB]c values chosen reflected a range that would likely contain the actual HLB of the test ester. Hot distilled water (70°-80° C.) was then slowly added with agitation. The total weight of all these reagents was 100 grams. The resulting emulsion was allowed to cool, with continued agitation, until the temperature dropped below 30° C.
A series of emulsions for each test was prepared, one at a time, and then examined as a set. Each sample within the series was evaluated and graded according to the quality of the emulsion by visual examination of droplet size.

[7] = test system: mold, and gram-positive and gram-negative bacteria; test: Antimicrobial tests, overall biocidal effectiveness; format: cell-based; conditions: under the test conditions
Protocol: (§1) The antimicrobial properties of typical esters (I) and (Ia) were tested by minimum inhibitory concentration (MIC) tests, along with certain known substances, against […] strains of organisms: a mold, Aspergillus niger; a gram-positive bacteria, Staphylococcus aureus; and two gram-negative bacteria, Escherichia coli and Pseudomonas aeruginosa. […] These tests were used to determine any effect on biocidal activity of the varying chain length of the ester.
(§2) The known substances, on which identical tests were also performed, included the biocide, dimethyloldimethylhydantoin or DMDMH (iv), and a series of three surfactants, i.e., the three common emulsifiers, sodium lauryl sulfate (SLS); ethylene glycol distearate (EGDS), in the form of the commercial product PEGOSPERSE 50 DS (Lonza Inc.); and polyoxyethylene 20 sorbitan monoleate (POE 20 SMO), in the form of the commercial product GLYCOSPERSE 0 20 (Lonza Inc.).
(§3) The tests entailed contaminating a preexisting micro-colony with a known quantity (ppm, concentration) of test material. Each colony was then examined periodically over a one week period. […] A test was deemed non-efficacious when there was no decrease in colony size. In an effort to avoid any possible solvent effect, the micro-study was conducted in a totally aqueous solvent system without use of any other solvent.

Pseudomonas aeruginosa = test: Antimicrobial study against Pseudomonas aeruginosa (gram-negative bacteria); format: cell-based; conditions: methylolated C8/10 10,800 ppm, methylolated lauric 11,400 ppm, DMDMH 3,000 ppm, others 14,700 ppm
Protocol: as §1, §2, §3

Staphylococcus aureus = test: Antimicrobial study against Staphylococcus aureus (gram-positive bacteria); format: cell-based; conditions: methylolated C8/10 10,800 ppm, methylolated lauric 11,400 ppm, DMDMH 3,000 ppm, others 14,700 ppm
Protocol: as §1, §2, §3

Escherichia coli = test: Antimicrobial study against Escherichia coli (gram-negative bacteria); format: cell-based; conditions: methylolated C8/10 10,800 ppm, methylolated lauric 11,400 ppm, DMDMH 3,000 ppm, others 14,700 ppm
Protocol: as §1, §2, §3

Aspergillus niger = test: Antimicrobial study against Aspergillus niger (mold); format: cell-based; conditions: methylolated C8/10 10,800 ppm, methylolated lauric 11,400 ppm, DMDMH 3,000 ppm, others 14,700 ppm
Protocol: as §1, §2, §3

[8] = 1% active concentration in water

Structure (SMILES): CC(=O)OCCN1C(=O)N(CO)C(=O)C1(C)C [Acetic Methylolated Ester, 2-(3-hydroxymethyl-5,5-dimethyl-1,3-diazacyclopentane-2,4-dion-1-yl)-ethylester of acetic acid]
- Solubility in isopropyl alcohol [1]: S (>10 g/100 g Solvent)
- Solubility in mineral oil ([1]; grams, legend per 100 g Solvent): 3 g
- solubility ([1]; water): > 100 mg/mL
- Calculated TF [2, 8]: 0.123 Wt. %
- Determined FF [2, 8]: 0.0199 Wt. %
- Ratio FF/TF [2, 8]: 0.162
- FF (free formaldehyde) ([2]; neat ester, Table 3): 0.6 Wt. %
- TF (total available formaldehyde) ([2]; neat ester, Table 3): 12.3 Wt. %
- FF/TF ratio ([2]; concentration 0.1%): 0.25
- FF/TF ratio ([2]; concentration 1%): 0.20
- FF/TF ratio ([2]; concentration levels >5%): about 0.15%
- dispersion quality, decreasing order of rank [3]: isostearate>oleate>cocoate>laurate>C8/10ester>>stearate>acetate
- Classification of Dispersion ([3]; 0.5% active in water, 2 Hours): Dissolved
- Classification of Dispersion ([3]; 0.5% active in water, 3 Days): Dissolved
- Classification of Dispersion ([3]; 0.5% active in water, 13 Days): Dissolved
- Classification of Dispersion ([3]; 0.5% active in water, 55 Days): Dissolved
- Classification of Dispersion ([3]; 5.0% active in water, 2 Hours): Dissolved
- Classification of Dispersion ([3]; 5.0% active in water, 3 Days): Dissolved
- Classification of Dispersion ([3]; 5.0% active in water, 13 Days): Dissolved
- Classification of Dispersion ([3]; 5.0% active in water, 55 Days): Dissolved
- ΔG°cmc (Gibbs' Free Energy of Micellation) [4]: -3.896 kcal/mol
- cmc (critical micelle concentration) [4]: 7.24 × 10^-3 mol dm^-3
- Viscosity [5]: 4,384 cts
- ability to stabilize emulsions (Emulsion stability tests): generally unable to stabilize an emulsion for more than two hours
- emulsion quality, decreasing order of rank (Emulsion stability tests): cocoate, laurate>oleate,isostearate>stearate>C8/10 ester>acetate
- Classification of Emulsion (Emulsion stability tests; 2 Hours after preparation): 2-Phase
- Classification of Emulsion (Emulsion stability tests; 7 Days after preparation): 2-Phase
- Classification of Emulsion (Emulsion stability tests; 22 Days after preparation): 2-Phase
- Classification of Emulsion (Emulsion stability tests; 55 Days after preparation): 2-Phase
- Average HLB [6]: 19.0
- HLB Range [6]: 19-20
- Average HLB ([6]; listed as acetate (I)): 19

Structure (SMILES): CCCCCCCCCCCCOS(=O)(=O)[O-].[Na+] [SLS, Sodium lauryl sulfate, reference compound]
- biocidal effectiveness [7]: none of the three known long aliphatic chain containing emulsifiers, sodium lauryl sulfate, ethylene glycol distearate and POE 20 sorbitan monoleate, was effective as a biocide
- Colony Count (Pseudomonas aeruginosa; Day 0): 4,100 × 1,000
- Colony Count (Pseudomonas aeruginosa; Day 1): 500 × 1,000
- Colony Count (Pseudomonas aeruginosa; Day 2): TNC
- Colony Count (Pseudomonas aeruginosa; Day 3): 30 × 1,000
- Colony Count (Pseudomonas aeruginosa; Day 7): 50 × 1,000
- Colony Count (Staphylococcus aureus; Day 0): 2,000 × 1,000
- Colony Count (Staphylococcus aureus; Day 1): 3,000 × 1,000
- Colony Count (Staphylococcus aureus; Day 2): TNC
- Colony Count (Staphylococcus aureus; Day 3): 450 × 1,000
- Colony Count (Staphylococcus aureus; Day 7): < 0.01 × 1,000
- ΔG°cmc ([4]; Table 6): -5.552 kcal/mol
- ΔG°cmc (Gibbs' Free Energy of Micellation) [4]: -5.552 kcal/mol
- cmc (critical micelle concentration) [4]: 4.4 × 10^-3 mol dm^-3
- Colony Count (Escherichia coli; Day 0): 8,000 × 1,000
- Colony Count (Escherichia coli; Day 1): 20 × 1,000
- Colony Count (Escherichia coli; Day 2): TNC
- Colony Count (Escherichia coli; Day 3): 160 × 1,000
- Colony Count (Escherichia coli; Day 7): 60 × 1,000
- Colony Count (Aspergillus niger; Day 0): 600 × 1,000
- Colony Count (Aspergillus niger; Day 1): 2,000 × 1,000
- Colony Count (Aspergillus niger; Day 2): 300 × 1,000
- Colony Count (Aspergillus niger; Day 3): 160 × 1,000
- Colony Count (Aspergillus niger; Day 7): 200 × 1,000

Structure (SMILES): CCCCCCCCCCCCCCCCCC(=O)OCCOC(=O)CCCCCCCCCCCCCCCCC [EGDS, ethylene glycol distearate, reference compound]
- biocidal effectiveness [7]: none of the three known long aliphatic chain containing emulsifiers, sodium lauryl sulfate, ethylene glycol distearate and POE 20 sorbitan monoleate, was effective as a biocide
- Colony Count (Pseudomonas aeruginosa; Day 0): 3,000 × 1,000
- Colony Count (Pseudomonas aeruginosa; Day 1): TNC
- Colony Count (Pseudomonas aeruginosa; Day 2): TNC
- Colony Count (Pseudomonas aeruginosa; Day 3): 2,500 × 1,000
- Colony Count (Pseudomonas aeruginosa; Day 7): TNC
- Colony Count (Staphylococcus aureus; Day 0): 600 × 1,000
- Colony Count (Staphylococcus aureus; Day 1): 350 × 1,000
- Colony Count (Staphylococcus aureus; Day 2): TNC
- Colony Count (Staphylococcus aureus; Day 3): TNC
- Colony Count (Staphylococcus aureus; Day 7): 2,000 × 1,000
- Colony Count (Escherichia coli; Day 0): 2,000 × 1,000
- Colony Count (Escherichia coli; Day 1): TNC
- Colony Count (Escherichia coli; Day 2): TNC
- Colony Count (Escherichia coli; Day 3): TNC
- Colony Count (Escherichia coli; Day 7): TNC
- Colony Count (Aspergillus niger; Day 0): 2,000 × 1,000
- Colony Count (Aspergillus niger; Day 1): 500 × 1,000
- Colony Count (Aspergillus niger; Day 2): 300 × 1,000
- Colony Count (Aspergillus niger; Day 3): 200 × 1,000
- Colony Count (Aspergillus niger; Day 7): 700 × 1,000
